*1 amine or outer side, *2 acyl side, *3 side chain or, on linkers, in order; H or OH if unused. Where a SMILES comes first, the peptide text is derived from it. [ ]: non-standard residue; d: D form. X1 = O=C([C@@H]1C[C@H](n2cc([C]34[CH]5[CH]6[CH]7[CH]3[Fe]6754389%10[CH]4[CH]3[CH]8[CH]9[CH]4%10)nn2)CN1[*:1])[*:2]; X2 = O=C([C@@H]1C[C@H](n2nncc2[C]23[CH]4[CH]5[CH]6[CH]2[Fe]56432789[CH]3[CH]2[CH]7[CH]8[CH]39)CN1[*:1])[*:2]; Bta = N[C@@H](Cc1csc2ccccc12)C(=O)O
Columns and labels:
[1] = target: gp120YU-2 S375H (Human immunodeficiency virus type 1 group M subtype B, UniProt P35961, S370H); assay: Competition SPR: inhibition of gp120 S375H binding to sCD4; set-up: species or system HIV-1
[2] = target: wt gp120YU-2 (Human immunodeficiency virus type 1 group M subtype B, UniProt P35961); assay: Competition SPR: inhibition of wt gp120YU-2 binding to immobilized sCD4; set-up: species or system HIV-1; settings: relative to peptide 1

SMILES | inhibition of S375H mutant binding to sCD4 [1] | weaker binding than peptide 1 [2] [fold]
CC[C@H](C)[C@H](N)C(=O)N[C@@H](CC(N)=O)C(=O)N[C@@H](CC(N)=O)C(=O)N[C@H](C(=O)N1C[C@@H](n2cc([C]34[CH]5[CH]6[CH]7[CH]3[Fe]6754389%10[CH]4[CH]3[CH]8[CH]9[CH]4%10)nn2)C[C@H]1C(=O)N[C@@H](Cc1csc2ccccc12)C(N)=O)[C@@H](C)CC (some centres unmarked) [peptide 3] (H-INNI[X1][Bta]-NH2) | resistant | –
CC[C@H](C)[C@H](N)C(=O)N[C@@H](CC(N)=O)C(=O)N[C@@H](CC(N)=O)C(=O)N[C@H](C(=O)N1C[C@@H](n2nncc2[C]23[CH]4[CH]5[CH]6[CH]2[Fe]56432789[CH]3[CH]2[CH]7[CH]8[CH]39)C[C@H]1C(=O)N[C@@H](Cc1c[nH]c2ccccc12)C(N)=O)[C@@H](C)CC (some centres unmarked) [peptide 6] (H-INNI[X2]W-NH2) | – | ~200
